Earlier results, collected in publication PMC4022290 (Nuclear medicine and biology, 2013).

Test system: tumors

For “D-Phe-Gln-Trp-Ala-Val-Gly-His-Sta-Leu-NH2 [RM2]”, the “uptake and retention in tumors vs agonist GRPr-targeting ligands” value is listed as “improved uptake and retention in tumors as compared to agonist GRPr-targeting ligands”.
